Data: PubChem BioAssay AID256 (DTP/NCI, 2004)
“And” between values parts separate entries of the source, which are not always exact repeats. Identical values can stand only once. Inconclusive results and toxic doses are left out. Rule for the calls: active = survival T/C of 150% or more; inactive = T/C below 125% in these data.

Test system: CD2F1 mice, L1210 leukemia ip, survival T/C
Assay: NCI In Vivo Anticancer Drug Screen. Data for tumor model L1210 Leukemia (intraperitoneal) in CD2F1 (CDF1) mice
Details: higher = longer survival
Outline: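 Ratio T/C, where T is the treated-group value and C the vehicle-dosed control value, from mice implanted with a transplantable tumor.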

[1] = endpoint: mean survival time, dose: 200.0 mg/kg/injection, schedule: Q04DX003 (ip), vehicle: saline with Tween-80
[2] = endpoint: mean survival time, dose: 50.0 mg/kg/injection, schedule: Q01DX009 (ip), vehicle: saline with Tween-80
[3] = endpoint: mean survival time, dose: 100.0 mg/kg/injection, schedule: Q01DX009 (ip), vehicle: saline with Tween-80

Measured: T/C

COc1cc(NCc2ccc3nc(N)nc(N)c3c2C)cc(OC)c1OC
inactive: endpoint: mean survival time, dose: 0.62 mg/kg/injection, schedule: Q01DX009 (ip), vehicle: sodium bicarbonate 102 % of control | endpoint: mean survival time, dose: 1.25 mg/kg/injection, schedule: Q01DX009 (ip), vehicle: sodium bicarbonate 102 % of control and 106 % of control | endpoint: mean survival time, dose: 1.87 mg/kg/injection, schedule: Q04DX003 (ip), vehicle: sodium bicarbonate 106 % of control | endpoint: mean survival time, dose: 2.5 mg/kg/injection, schedule: Q01DX009 (ip), vehicle: sodium bicarbonate 110 % of control and 112 % of control | endpoint: mean survival time, dose: 3.11 mg/kg/injection, schedule: Q01DX009 (ip), vehicle: other 118 % of control | endpoint: mean survival time, dose: 3.75 mg/kg/injection, schedule: Q04DX003 (ip), vehicle: sodium bicarbonate 96 % of control | endpoint: mean survival time, dose: 5.0 mg/kg/injection, schedule: Q01DX009 (ip), vehicle: sodium bicarbonate 121 % of control and 110 % of control | endpoint: mean survival time, dose: 5.18 mg/kg/injection, schedule: Q01DX009 (ip), vehicle: other 121 % of control | endpoint: mean survival time, dose: 5.27 mg/kg/injection, schedule: Q01DX009 (ip), vehicle: Klucel (hydroxypropylcellulose) (HPC) 122 % of control | endpoint: mean survival time, dose: 7.05 mg/kg/injection, schedule: Q01DX009 (ip), vehicle: water 117 % of control | endpoint: mean survival time, dose: 7.5 mg/kg/injection, schedule: Q04DX003 (ip), vehicle: sodium bicarbonate 110 % of control | endpoint: mean survival time, dose: 10.5 mg/kg/injection, schedule: Q01DX009 (ip), vehicle: water 123 % of control | endpoint: mean survival time, dose: 15.0 mg/kg/injection, schedule: Q04DX003 (ip), vehicle: sodium bicarbonate 112 % of control | endpoint: mean survival time, dose: 30.0 mg/kg/injection, schedule: Q04DX003 (ip), vehicle: sodium bicarbonate 114 % of control | endpoint: mean survival time, dose: 40.0 mg/kg/injection, schedule: Q01DX009 (ip), vehicle: sodium bicarbonate 110 % of control | endpoint: mean survival time, dose: 60.0 mg/kg/injection, schedule: Q01DX009 (ip), vehicle: Klucel (hydroxypropylcellulose) (HPC) 122 % of control | endpoint: mean survival time, dose: 90.0 mg/kg/injection, schedule: Q01DX009 (ip), vehicle: Klucel (hydroxypropylcellulose) (HPC) 116 % of control | endpoint: median survival time, dose: 2.5 mg/kg/injection, schedule: Q01DX009 (ip), vehicle: sodium bicarbonate 109 % of control | endpoint: median survival time, dose: 5.0 mg/kg/injection, schedule: Q01DX009 (ip), vehicle: Klucel (hydroxypropylcellulose) (HPC) 119 % of control | endpoint: median survival time, dose: 5.0 mg/kg/injection, schedule: Q01DX009 (ip), vehicle: sodium bicarbonate 117 % of control and 124 % of control | endpoint: median survival time, dose: 6.25 mg/kg/injection, schedule: Q01DX009 (ip), vehicle: water 124 % of control | endpoint: median survival time, dose: 80.0 mg/kg/injection, schedule: Q01DX009 (ip), vehicle: Klucel (hydroxypropylcellulose) (HPC) 112 % of control | endpoint: median survival time, dose: 90.0 mg/kg/injection, schedule: Q01DX009 (ip), vehicle: distilled water + Tween-80 118 % of control
active: endpoint: mean survival time, dose: 17.8 mg/kg/injection, schedule: Q01DX009 (ip), vehicle: Klucel (hydroxypropylcellulose) (HPC) 174 % of control | endpoint: mean survival time, dose: 20.0 mg/kg/injection, schedule: Q01DX009 (ip), vehicle: sodium bicarbonate 156 % of control and 160 % of control | endpoint: mean survival time, dose: 24.0 mg/kg/injection, schedule: Q01DX009 (ip), vehicle: other 152 % of control | endpoint: mean survival time, dose: 26.7 mg/kg/injection, schedule: Q01DX009 (ip), vehicle: Klucel (hydroxypropylcellulose) (HPC) 191 % of control | endpoint: mean survival time, dose: 40.0 mg/kg/injection, schedule: Q01DX009 (ip), vehicle: Klucel (hydroxypropylcellulose) (HPC) 216 % of control | endpoint: mean survival time, dose: 40.0 mg/kg/injection, schedule: Q01DX009 (ip), vehicle: other 167 % of control | endpoint: mean survival time, dose: 80.0 mg/kg/injection, schedule: Q01DX009 (ip), vehicle: water 151 % of control | endpoint: median survival time, dose: 7.5 mg/kg/injection, schedule: Q01DX005 (ip), vehicle: Klucel (hydroxypropylcellulose) (HPC) 150 % of control | endpoint: median survival time, dose: 10.0 mg/kg/injection, schedule: Q01DX009 (ip), vehicle: Klucel (hydroxypropylcellulose) (HPC) 151 % of control | endpoint: median survival time, dose: 15.0 mg/kg/injection, schedule: Q01DX005 (ip), vehicle: Klucel (hydroxypropylcellulose) (HPC) 167 % of control | endpoint: median survival time, dose: 18.0 mg/kg/injection, schedule: Q01DX009 (ip), vehicle: distilled water + Tween-80 153 % of control | endpoint: median survival time, dose: 20.0 mg/kg/injection, schedule: Q01DX009 (ip), vehicle: Klucel (hydroxypropylcellulose) (HPC) 172 % of control | endpoint: median survival time, dose: 20.0 mg/kg/injection, schedule: Q01DX009 (ip), vehicle: sodium bicarbonate 152 % of control and 157 % of control | endpoint: median survival time, dose: 25.0 mg/kg/injection, schedule: Q01DX009 (ip), vehicle: water 157 % of control | endpoint: median survival time, dose: 27.0 mg/kg/injection, schedule: Q01DX009 (ip), vehicle: distilled water + Tween-80 165 % of control | endpoint: median survival time, dose: 30.0 mg/kg/injection, schedule: Q01DX005 (ip), vehicle: Klucel (hydroxypropylcellulose) (HPC) 166 % of control and 175 % of control | endpoint: median survival time, dose: 40.0 mg/kg/injection, schedule: Q01DX009 (ip), vehicle: distilled water + Tween-80 158 % of control and 168 % of control | endpoint: median survival time, dose: 40.0 mg/kg/injection, schedule: Q01DX009 (ip), vehicle: sodium bicarbonate 168 % of control and 181 % of control | endpoint: median survival time, dose: 44.0 mg/kg/injection, schedule: Q01DX009 (ip), vehicle: water 154 % of control | endpoint: median survival time, dose: 50.0 mg/kg/injection, schedule: Q01DX009 (ip), vehicle: water 157 % of control and 165 % of control | endpoint: median survival time, dose: 60.0 mg/kg/injection, schedule: Q01DX005 (ip), vehicle: Klucel (hydroxypropylcellulose) (HPC) 184 % of control and 185 % of control | endpoint: median survival time, dose: 60.0 mg/kg/injection, schedule: Q01DX009 (ip), vehicle: distilled water + Tween-80 160 % of control and 182 % of control | endpoint: median survival time, dose: 100.0 mg/kg/injection, schedule: Q01DX009 (ip), vehicle: water 173 % of control and 184 % of control | endpoint: median survival time, dose: 120.0 mg/kg/injection, schedule: Q01DX005 (ip), vehicle: Klucel (hydroxypropylcellulose) (HPC) 236 % of control

O=C(C(=C(c1ccccc1)c1ccccc1)N1CCCCC1)c1ccccc1
inactive: endpoint: mean survival time, dose: 100.0 mg/kg/injection, schedule: Q04DX003 (ip), vehicle: Klucel (hydroxypropylcellulose) (HPC) 94 % of control | endpoint: mean survival time, dose: 200.0 mg/kg/injection, schedule: Q04DX003 (ip), vehicle: Klucel (hydroxypropylcellulose) (HPC) 96 % of control | endpoint: mean survival time, dose: 400.0 mg/kg/injection, schedule: Q04DX003 (ip), vehicle: Klucel (hydroxypropylcellulose) (HPC) 94 % of control

CC12OCCN1CC(COc1ccccc1)O2 (stereo not given)
inactive: endpoint: mean survival time, dose: 100.0 mg/kg/injection, schedule: Q04DX003 (ip), vehicle: saline with Tween-80 104 % of control | [1] 98 % of control | endpoint: mean survival time, dose: 400.0 mg/kg/injection, schedule: Q04DX003 (ip), vehicle: saline with Tween-80 110 % of control

CC1SCCCS1
inactive: endpoint: mean survival time, dose: 12.5 mg/kg/injection, schedule: Q04DX003 (ip), vehicle: other 106 % of control | endpoint: mean survival time, dose: 25.0 mg/kg/injection, schedule: Q04DX003 (ip), vehicle: other 104 % of control | endpoint: mean survival time, dose: 50.0 mg/kg/injection, schedule: Q04DX003 (ip), vehicle: other 102 % of control | endpoint: mean survival time, dose: 100.0 mg/kg/injection, schedule: Q04DX003 (ip), vehicle: other 102 % of control | endpoint: mean survival time, dose: 200.0 mg/kg/injection, schedule: Q04DX003 (ip), vehicle: other 97 % of control

NC1C(O)C(N)C(O)C(O)C1O (stereo not given)
inactive: endpoint: mean survival time, dose: 100.0 mg/kg/injection, schedule: Q01DX009 (ip), vehicle: saline sonified 90 % of control | endpoint: mean survival time, dose: 200.0 mg/kg/injection, schedule: Q01DX009 (ip), vehicle: saline sonified 95 % of control | endpoint: mean survival time, dose: 400.0 mg/kg/injection, schedule: Q01DX009 (ip), vehicle: saline sonified 95 % of control

Cc1[nH]ccc2c(C)c3nc4ccccc4c3cc12
inactive: [3] 117 % of control | [1] 96 % of control
active: [2] 152 % of control

O=C(O)C1=CCCc2ccc(F)cc21
inactive: endpoint: median survival time, dose: 50.0 mg/kg/injection, schedule: Q04DX002 (ip), vehicle: saline with Tween-80 100 % of control | endpoint: median survival time, dose: 100.0 mg/kg/injection, schedule: Q04DX002 (ip), vehicle: saline with Tween-80 100 % of control | endpoint: median survival time, dose: 200.0 mg/kg/injection, schedule: Q04DX002 (ip), vehicle: saline with Tween-80 88 % of control | endpoint: median survival time, dose: 400.0 mg/kg/injection, schedule: Q04DX002 (ip), vehicle: saline with Tween-80 111 % of control

COc1cc2c(cc1OC)C(CC(C)C)=[N+](C)CC2
inactive: endpoint: mean survival time, dose: 25.0 mg/kg/injection, schedule: Q01DX009 (ip), vehicle: saline with Tween-80 103 % of control | [2] 98 % of control | [3] 109 % of control | endpoint: mean survival time, dose: 100.0 mg/kg/injection, schedule: Q04DX002 (ip), vehicle: saline with Tween-80 92 % of control

NCCCNCCCCNCCCN
inactive: endpoint: median survival time, dose: 24.75 mg/kg/injection, schedule: Q04DX003 (ip), vehicle: saline 101 % of control | endpoint: median survival time, dose: 49.5 mg/kg/injection, schedule: Q04DX003 (ip), vehicle: saline 107 % of control

COC1OC(CO)C(NC(N)=O)C1O (stereo not given)
inactive: endpoint: mean survival time, dose: 100.0 mg/kg/injection, schedule: Q01DX001 (ip), vehicle: saline 101 % of control | endpoint: mean survival time, dose: 200.0 mg/kg/injection, schedule: Q01DX001 (ip), vehicle: saline 100 % of control | endpoint: mean survival time, dose: 400.0 mg/kg/injection, schedule: Q01DX001 (ip), vehicle: saline 95 % of control

CSc1ccccc1C1=CCCCC1
inactive: endpoint: mean survival time, dose: 100.0 mg/kg/injection, schedule: Q04DX003 (ip), vehicle: saline 95 % of control | endpoint: mean survival time, dose: 200.0 mg/kg/injection, schedule: Q04DX003 (ip), vehicle: saline 93 % of control | endpoint: mean survival time, dose: 400.0 mg/kg/injection, schedule: Q04DX003 (ip), vehicle: saline 98 % of control
